This note sets out measurements from patent US20240067632A1, “WEE1 Degrading Compounds and Uses Thereof” (Bristol-Myers Squibb Company, priority 2022, published 2024).

Assay [1] addresses T1, WEE1 (Homo sapiens, UniProt P30291+Q96SW2).
T1 construct: C-terminal ePL-tagged (DiscoverX, Fremont, CA) full-length WEE1 expression construct; expressed in transfected cells; host or cells: LentiX-HEK293T (Invitrogen), lentiviral transduction; co-expressing GSPT1-GN (G576N, lacking the first 158 amino acids)
Description: WEE1-ePL degradation assay (LentiX-WEE1-ePL-GSPT1-ND cells, InCELL Hunter luminescence, 4 h). It counts as cell-based. Particulars: 293T-LentiX WEE1-ePL cells; for 293T-LentiX WEE1-ePL Degradation 4 hr (Ymin): lower limit of the fit (0 = luciferase inhibitor, Ymax = DMSO control); for DC50: read-out: 293T-LentiX WEE1-ePL Degradation 4 hr (EC50). The procedure, abridged: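 LentiX-HEK293T cells stably expressing C-terminally ePL-tagged full-length WEE1 were treated with compounds in a 10-point, 3-fold dilution series starting at 1 uM or 10 uM for 4 h at 37 °C. Remaining WEE1-ePL was detected by InCELL Hunter luminescence, and EC50, Ymin and Ymax came from a four-parameter logistic fit against DMSO control.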

Assay [2] has as its system MKN45 cells. As to the kind of experiment: MKN45 cell proliferation assay (Cell-Titer-Glo, 120 h). It counts as cell-based. The note with it: for EC50: Homo sapiens, MKN-45, 120 h, Cell-Titer-Glo, growth inhibition, read-out: MKN45 Cell Prolif. 120 hr (EC50); for MKN45 Cell Prolif. 120 hr (Ymin-Obs): minimal percent of DMSO control observed in the concentrations tested. The gist of the method: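 Growth inhibition was read as blank-corrected Cell-Titer-Glo luminescence expressed as percent DMSO control after 120 h at 37 C, 400 cells/well. Compounds tested in triplicate as 10-point half-log series from 1 or 10 uM, 0.1% DMSO; four-parameter fit gave EC50, and lowest observed percent control was reported as Ymin-obs.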

`O=C1CCC(N2Cc3cc(O[C@H]4CCN(Cc5ccc6nc(N7CC8(COC8)C7)ccc6c5)C4)ccc3C2=O)C(=O)N1` (stereo partly drawn) [3-(5-{[(3S)-1-[(2-{2-oxa-6-azaspiro[3.3]heptan-6-yl}quinolin-6-yl)methyl]pyrrolidin-3-yl]oxy}-1-oxo-2,3-dihydro-1H-isoindol-2-yl)piperidine-2,6-dione]: in assay [1], the “293T-LentiX WEE1-ePL Degradation 4 hr (Ymin)” value is 41.5 and the DC50 was determined as 7.76 nM. Also, in assay [2], the EC50 is 10.7 nM and the “MKN45 Cell Prolif. 120 hr (Ymin-Obs)” value amounted to 14.91.
Turning to `O=C1CCC(N2Cc3cc(O[C@H]4CCN(Cc5ccc6nc(C78CCOCC7C8)ccc6c5)C4)ccc3C2=O)C(=O)N1` (stereo partly drawn) [3-(5-{[(3S)-1-[(2-{3-oxabicyclo[4.1.0]heptan-6-yl}quinolin-6-yl)methyl]pyrrolidin-3-yl]oxy}-1-oxo-2,3-dihydro-1H-isoindol-2-yl)piperidine-2,6-dione], in assay [1], the “293T-LentiX WEE1-ePL Degradation 4 hr (Ymin)” value is 33.33 and the DC50 was determined as 3.1 nM. In assay [2], the EC50 is 2.16 nM and the “MKN45 Cell Prolif. 120 hr (Ymin-Obs)” value was determined as 9.735.
The corresponding values for `O=C1CCC(N2Cc3cc(O[C@H]4CCN(Cc5ccc6nc(N7CCC78COC8)ncc6c5)C4)ccc3C2=O)C(=O)N1` (stereo partly drawn) [3-(5-{[(3S)-1-[(2-{6-oxa-1-azaspiro[3.3]heptan-1-yl}quinazolin-6-yl)methyl]pyrrolidin-3-yl]oxy}-1-oxo-2,3-dihydro-1H-isoindol-2-yl)piperidine-2,6-dione] are 37, 8.5 nM, 14.2 nM and 14.05.
Turning to `O=C1CCC(N2Cc3cc(O[C@H]4CCN(Cc5ccc6nc(N7CCC78COC8)ccc6c5)C4)ccc3C2=O)C(=O)N1` (stereo partly drawn) [3-(5-{[(3S)-1-[(2-{6-oxa-1-azaspiro[3.3]heptan-1-yl}quinolin-6-yl)methyl]pyrrolidin-3-yl]oxy}-1-oxo-2,3-dihydro-1H-isoindol-2-yl)piperidine-2,6-dione], in assay [1], the “293T-LentiX WEE1-ePL Degradation 4 hr (Ymin)” value came to 35 and the DC50 turned out to be 6.17 nM. Moreover, in assay [2], the EC50 amounted to 3.82 nM and the “MKN45 Cell Prolif. 120 hr (Ymin-Obs)” value was 8.91.
The like results for `O=C1CCC(N2Cc3cc(O[C@H]4CCN(Cc5ccc6nc(N7CCC78CCOCC8)ncc6c5)C4)ccc3C2=O)C(=O)N1` (stereo partly drawn) [3-(5-{[(3S)-1-[(2-{7-oxa-1-azaspiro[3.5]nonan-1-yl}quinazolin-6-yl)methyl]pyrrolidin-3-yl]oxy}-1-oxo-2,3-dihydro-1H-isoindol-2-yl)piperidine-2,6-dione] were, in that order, 37, 11.4 nM, 12.6 nM and 13.59.
As to `O=C1CCC(N2Cc3cc(O[C@H]4CCN(Cc5ccc6nc(N7CCC78CCOCC8)ccc6c5)C4)ccc3C2=O)C(=O)N1` (stereo partly drawn) [3-(5-{[(3S)-1-[(2-{7-oxa-1-azaspiro[3.5]nonan-1-yl}quinolin-6-yl)methyl]pyrrolidin-3-yl]oxy}-1-oxo-2,3-dihydro-1H-isoindol-2-yl)piperidine-2,6-dione], in assay [1], the “293T-LentiX WEE1-ePL Degradation 4 hr (Ymin)” value is recorded as 33 and the DC50 turned out to be 6.05 nM. Moreover, in assay [2], the EC50 was found to be 3.7 nM and the “MKN45 Cell Prolif. 120 hr (Ymin-Obs)” value worked out at 7.36.
The like results for `O=C1CCC(N2Cc3cc(O[C@H]4CCN(Cc5ccc6nc(N7CC8(CCOCC8)C7)ncc6c5)C4)ccc3C2=O)C(=O)N1` (stereo partly drawn) [3-(5-{[(3S)-1-[(2-{7-oxa-2-azaspiro[3.5]nonan-2-yl}quinazolin-6-yl)methyl]pyrrolidin-3-yl]oxy}-1-oxo-2,3-dihydro-1H-isoindol-2-yl)piperidine-2,6-dione] were, in that order, 35, 16.6 nM, 10.2 nM and 9.958.
The corresponding values for `O=C1CCC(N2Cc3cc(O[C@H]4CCN(Cc5ccc6nc(N7CC8(CCOCC8)C7)ccc6c5)C4)ccc3C2=O)C(=O)N1` (stereo partly drawn) [3-(5-{[(3S)-1-[(2-{7-oxa-2-azaspiro[3.5]nonan-2-yl}quinolin-6-yl)methyl]pyrrolidin-3-yl]oxy}-1-oxo-2,3-dihydro-1H-isoindol-2-yl)piperidine-2,6-dione] are 36, 1.94 nM, 2.84 nM and 10.13.
The like results for `O=C1CCC(N2Cc3cc(O[C@H]4CCN(Cc5ccc6nc(N7CCCC78CCOCC8)ncc6c5)C4)ccc3C2=O)C(=O)N1` (stereo partly drawn) [3-(5-{[(3S)-1-[(2-{8-oxa-1-azaspiro[4.5]decan-1-yl}quinazolin-6-yl)methyl]pyrrolidin-3-yl]oxy}-1-oxo-2,3-dihydro-1H-isoindol-2-yl)piperidine-2,6-dione] were, in that order, 47, 18.1 nM, 14.1 nM and 20.87.
As for `O=C1CCC(N2Cc3cc(O[C@H]4CCN(Cc5ccc6nc(N7CCCC78CCOCC8)ccc6c5)C4)ccc3C2=O)C(=O)N1` (stereo partly drawn) [3-(5-{[(3S)-1-[(2-{8-oxa-1-azaspiro[4.5]decan-1-yl}quinolin-6-yl)methyl]pyrrolidin-3-yl]oxy}-1-oxo-2,3-dihydro-1H-isoindol-2-yl)piperidine-2,6-dione], in assay [1], the “293T-LentiX WEE1-ePL Degradation 4 hr (Ymin)” value came to 47 and the DC50 came out at 11.3 nM. Also, in assay [2], the EC50 stood at 15.5 nM and the “MKN45 Cell Prolif. 120 hr (Ymin-Obs)” value was found to be 20.2.
On to `O=C1CCC(N2Cc3cc(O[C@H]4CCN(Cc5ccc6ncc(F)cc6c5F)C4)ccc3C2=O)C(=O)N1` (stereo partly drawn) [3-(5-{[(3S)-1-[(3,5-difluoroquinolin-6-yl)methyl]pyrrolidin-3-yl]oxy}-1-oxo-2,3-dihydro-1H-isoindol-2-yl)piperidine-2,6-dione], for which, in assay [1], the “293T-LentiX WEE1-ePL Degradation 4 hr (Ymin)” value was 28.96 and the DC50 is 8.71 nM. For the same molecule, in assay [2], the EC50 amounted to 38.3 nM and the “MKN45 Cell Prolif. 120 hr (Ymin-Obs)” value came out at 12.86.
The corresponding values for `Cc1cnc2ccc(CN3CC[C@H](Oc4ccc5c(c4)CN(C4CCC(=O)NC4=O)C5=O)C3)c(C)c2c1` (stereo partly drawn) [3-(5-{[(3S)-1-[(3,5-dimethylquinolin-6-yl)methyl]pyrrolidin-3-yl]oxy}-1-oxo-2,3-dihydro-1H-isoindol-2-yl)piperidine-2,6-dione] are 39.05, 7.92 nM, 93.8 nM and 53.11.
Consider `Cc1nc2ccc(CN3CC[C@H](Oc4ccc5c(c4)CN(C4CCC(=O)NC4=O)C5=O)C3)cc2cc1F` (stereo partly drawn) [3-(5-{[(3S)-1-[(3-fluoro-2-methylquinolin-6-yl)methyl]pyrrolidin-3-yl]oxy}-1-oxo-2,3-dihydro-1H-isoindol-2-yl)piperidine-2,6-dione], for which, in assay [1], the “293T-LentiX WEE1-ePL Degradation 4 hr (Ymin)” value is 33.29 and the DC50 was found to be 6.95 nM. Besides, in assay [2], the EC50 came to 53.6 nM and the “MKN45 Cell Prolif. 120 hr (Ymin-Obs)” value was 18.86.
The corresponding values for `O=C1CCC(N2Cc3cc(O[C@H]4CCN(Cc5ccc6ncc(F)cc6c5)C4)ccc3C2=O)C(=O)N1` (stereo partly drawn) [3-(5-{[(3S)-1-[(3-fluoroquinolin-6-yl)methyl]pyrrolidin-3-yl]oxy}-1-oxo-2,3-dihydro-1H-isoindol-2-yl)piperidine-2,6-dione] are 34.66, 8.72 nM, 75.7 nM and 19.555.
